Test results: PubChem BioAssay AID1963451 (Molecular Pharmacology Branch, DTP, NCI, 2024)

Tested on: 521955-158-R6-J3-PDC complex spheroid growth, % test/control
Assay: Anticancer human tumor 521955-158-R6-J3-PDC patient-derived pancreatic carcinoma cell line growth inhibition [Asc]
Conditions: for IC50: curve of first compound; for viability, T/C: stronger effect = lower value
Outline: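 Tumor cells were grown as multicellular spheroids with stromal HUVEC and mesenchymal stem cells and treated singly or in combination. Concentrations fell in half-log steps from the clinical Cmax, or from 10 microM where none was known.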
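Note: spheroids exposed to compounds for 7 days.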
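Throughout, for viability, T/C: 100% = DMSO vehicle control wells.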

## Cc1nc(N2CCC3(CC2)COC(C)C3N)c(CO)nc1Sc1ccnc(N)c1Cl (centres undefined) + Cc1c(S(C)(=O)=O)c(-c2cc(F)cc(N3CCN(c4ccc(NS(=O)(=O)c5ccc(NC(CCN6CCC(C(=O)OCCCP(=O)(O)O)CC6)CSc6ccccc6)c(S(=O)(=O)C(F)(F)F)c5)cc4)CC3)c2)c(-c2ccc(Cl)cc2)n1C(C)C
Second compound 0.0316 µM
  IC50: > 3000 nM
Second compound 0.1 µM
  IC50: 177 nM
Second compound 0.316 µM
  IC50: < 9.49 nM
Second compound 1 µM
  IC50: < 9.49 nM
Second compound 3.16 µM
  IC50: < 9.49 nM
Second compound 10 µM
  IC50: < 9.49 nM
Second compound 0.0316 µM, first compound 0.00949 µM
  viability, T/C: 81.8%
Second compound 0.0316 µM, first compound 0.03 µM
  viability, T/C: 75%
Second compound 0.0316 µM, first compound 0.0949 µM
  viability, T/C: 57.6%
Second compound 0.0316 µM, first compound 0.3 µM
  viability, T/C: 61.2%
Second compound 0.0316 µM, first compound 0.949 µM
  viability, T/C: 58.6%
Second compound 0.0316 µM, first compound 3 µM
  viability, T/C: 51.7%
Second compound 0.1 µM, first compound 0.00949 µM
  viability, T/C: 77.4%
Second compound 0.1 µM, first compound 0.03 µM
  viability, T/C: 63.2%
Second compound 0.1 µM, first compound 0.0949 µM
  viability, T/C: 49.1%
Second compound 0.1 µM, first compound 0.3 µM
  viability, T/C: 54.4%
Second compound 0.1 µM, first compound 0.949 µM
  viability, T/C: 39.6%
Second compound 0.1 µM, first compound 3 µM
  viability, T/C: 39.9%
Second compound 0.316 µM, first compound 0.00949 µM
  viability, T/C: 42.6%
Second compound 0.316 µM, first compound 0.03 µM
  viability, T/C: 38.7%
Second compound 0.316 µM, first compound 0.0949 µM
  viability, T/C: 41.9%
Second compound 0.316 µM, first compound 0.3 µM
  viability, T/C: 29%
Second compound 0.316 µM, first compound 0.949 µM
  viability, T/C: 31.1%
Second compound 0.316 µM, first compound 3 µM
  viability, T/C: 22.3%
Second compound 1 µM, first compound 0.00949 µM
  viability, T/C: 26.3%
Second compound 1 µM, first compound 0.03 µM
  viability, T/C: 24.8%
Second compound 1 µM, first compound 0.0949 µM
  viability, T/C: 22.8%
Second compound 1 µM, first compound 0.3 µM
  viability, T/C: 26%
Second compound 1 µM, first compound 0.949 µM
  viability, T/C: 15.5%
Second compound 1 µM, first compound 3 µM
  viability, T/C: 14.1%
Second compound 3.16 µM, first compound 0.00949 µM
  viability, T/C: 16.7%
Second compound 3.16 µM, first compound 0.03 µM
  viability, T/C: 19.9%
Second compound 3.16 µM, first compound 0.0949 µM
  viability, T/C: 12.2%
Second compound 3.16 µM, first compound 0.3 µM
  viability, T/C: 12.5%
Second compound 3.16 µM, first compound 0.949 µM
  viability, T/C: 11.6%
Second compound 3.16 µM, first compound 3 µM
  viability, T/C: 8.25%
Second compound 10 µM, first compound 0.00949 µM
  viability, T/C: 12.8%
Second compound 10 µM, first compound 0.03 µM
  viability, T/C: 11.4%
Second compound 10 µM, first compound 0.0949 µM
  viability, T/C: 12.7%
Second compound 10 µM, first compound 0.3 µM
  viability, T/C: 7.14%
Second compound 10 µM, first compound 0.949 µM
  viability, T/C: 8.9%
Second compound 10 µM, first compound 3 µM
  viability, T/C: 8.72%

## O=C(c1ccc(F)c(F)c1Nc1ccc(I)cc1F)N1CC(O)([C@@H]2CCCCN2)C1 + CCN1C(C(=O)NC23CCC(C(=O)O)(CC2)CC3)C(c2cccc(Cl)c2F)C2(C(=O)Nc3cc(Cl)ccc32)C12CCCCC2
Second compound 0.00949 µM
  IC50: 563 nM
Second compound 0.03 µM
  IC50: 587 nM
Second compound 0.0949 µM
  IC50: 389 nM
Second compound 0.3 µM
  IC50: 559 nM
Second compound 0.949 µM
  IC50: 380 nM
Second compound 3 µM
  IC50: 322 nM
Second compound 0.00949 µM, first compound 0.00316 µM
  viability, T/C: 85.8%
Second compound 0.00949 µM, first compound 0.01 µM
  viability, T/C: 102%
Second compound 0.00949 µM, first compound 0.0316 µM
  viability, T/C: 134%
Second compound 0.00949 µM, first compound 0.1 µM
  viability, T/C: 105%
Second compound 0.00949 µM, first compound 0.316 µM
  viability, T/C: 65.1%
Second compound 0.00949 µM, first compound 1 µM
  viability, T/C: 35%
Second compound 0.03 µM, first compound 0.00316 µM
  viability, T/C: 113%
Second compound 0.03 µM, first compound 0.01 µM
  viability, T/C: 106%
Second compound 0.03 µM, first compound 0.0316 µM
  viability, T/C: 104%
Second compound 0.03 µM, first compound 0.1 µM
  viability, T/C: 104%
Second compound 0.03 µM, first compound 0.316 µM
  viability, T/C: 68.5%
Second compound 0.03 µM, first compound 1 µM
  viability, T/C: 34%
Second compound 0.0949 µM, first compound 0.00316 µM
  viability, T/C: 104%
Second compound 0.0949 µM, first compound 0.01 µM
  viability, T/C: 111%
Second compound 0.0949 µM, first compound 0.0316 µM
  viability, T/C: 114%
Second compound 0.0949 µM, first compound 0.1 µM
  viability, T/C: 90.7%
Second compound 0.0949 µM, first compound 0.316 µM
  viability, T/C: 53.5%
Second compound 0.0949 µM, first compound 1 µM
  viability, T/C: 38.3%
Second compound 0.3 µM, first compound 0.00316 µM
  viability, T/C: 121%
Second compound 0.3 µM, first compound 0.01 µM
  viability, T/C: 117%
Second compound 0.3 µM, first compound 0.0316 µM
  viability, T/C: 120%
Second compound 0.3 µM, first compound 0.1 µM
  viability, T/C: 86.3%
Second compound 0.3 µM, first compound 0.316 µM
  viability, T/C: 63.2%
Second compound 0.3 µM, first compound 1 µM
  viability, T/C: 38.7%
Second compound 0.949 µM, first compound 0.00316 µM
  viability, T/C: 118%
Second compound 0.949 µM, first compound 0.01 µM
  viability, T/C: 115%
Second compound 0.949 µM, first compound 0.0316 µM
  viability, T/C: 120%
Second compound 0.949 µM, first compound 0.1 µM
  viability, T/C: 80%
Second compound 0.949 µM, first compound 0.316 µM
  viability, T/C: 57.2%
Second compound 0.949 µM, first compound 1 µM
  viability, T/C: 38.5%
Second compound 3 µM, first compound 0.00316 µM
  viability, T/C: 103%
Second compound 3 µM, first compound 0.01 µM
  viability, T/C: 112%
Second compound 3 µM, first compound 0.0316 µM
  viability, T/C: 104%
Second compound 3 µM, first compound 0.1 µM
  viability, T/C: 78.5%
Second compound 3 µM, first compound 0.316 µM
  viability, T/C: 52.5%
Second compound 3 µM, first compound 1 µM
  viability, T/C: 34.4%
